Test results: patent US11072612B2, “NLRP3 modulators” (INNATE TUMOR IMMUNITY, INC., priority 2016, dated 2021)

Experiments:
Format in all cases: cell-based
hNLRP3 = molecular target: T1, hNLRP3 (Homo sapiens, UniProt Q96P20); assay: hNLRP3 agonist assay: IL-1β production in PMA-differentiated THP-1 cells (ELISA); details: Table 2, 4 hours, IL-1β by ELISA
T1 construct: THP-1 cells were purchased from the American Type Culture Collection; host or cells: THP-1 cells, PMA-differentiated
Experimental: THP-1 cells were purchased from the American Type Culture Collection and sub-cultured according to instructions from the supplier. Prior to experiments, cells were cultured in RPMI 1640 containing 10% heat inactivated FBS, penicillin (100 units/ml) and streptomycin (100 μg/ml), and maintained in log phase prior to experimental setup. Prior to the experiment THP-1 were treated with PMA (Phorbol 12-myristate 13-acetate) (10 μg/ml) for 24 hours. The day of the experiment the media was removed and attaching cells were treated with trypsin for 2 minutes, cells were then collected, washed with PBS (phosphate buffer saline), spin down, resuspended in 2% heat inactivated FBS with RPMI at a concentration of 1×10^6 cells/ml, and 100 μl was plated in a 96 well plate. Cells were incubated with compounds for 4 hours. Cell free supernatant was collected and the production of IL-1β was evaluated by ELISA. Compounds were dissolved in dimethyl sulfoxide (DMSO) and added to the culture medium to achieve desired concentration (e.g. 100, 30, 10, 3, 1, 0.3 or 0.1 μM). A vehicle only control was run concurrently with each experiment. Final DMSO concentration was 1%.

TLR7 = molecular target: T2, TLR7 (Homo sapiens, UniProt Q9NYK1); assay: TLR7 EC50 assay; details: Table 2
T2 sequence (Q9NYK1 27-1049): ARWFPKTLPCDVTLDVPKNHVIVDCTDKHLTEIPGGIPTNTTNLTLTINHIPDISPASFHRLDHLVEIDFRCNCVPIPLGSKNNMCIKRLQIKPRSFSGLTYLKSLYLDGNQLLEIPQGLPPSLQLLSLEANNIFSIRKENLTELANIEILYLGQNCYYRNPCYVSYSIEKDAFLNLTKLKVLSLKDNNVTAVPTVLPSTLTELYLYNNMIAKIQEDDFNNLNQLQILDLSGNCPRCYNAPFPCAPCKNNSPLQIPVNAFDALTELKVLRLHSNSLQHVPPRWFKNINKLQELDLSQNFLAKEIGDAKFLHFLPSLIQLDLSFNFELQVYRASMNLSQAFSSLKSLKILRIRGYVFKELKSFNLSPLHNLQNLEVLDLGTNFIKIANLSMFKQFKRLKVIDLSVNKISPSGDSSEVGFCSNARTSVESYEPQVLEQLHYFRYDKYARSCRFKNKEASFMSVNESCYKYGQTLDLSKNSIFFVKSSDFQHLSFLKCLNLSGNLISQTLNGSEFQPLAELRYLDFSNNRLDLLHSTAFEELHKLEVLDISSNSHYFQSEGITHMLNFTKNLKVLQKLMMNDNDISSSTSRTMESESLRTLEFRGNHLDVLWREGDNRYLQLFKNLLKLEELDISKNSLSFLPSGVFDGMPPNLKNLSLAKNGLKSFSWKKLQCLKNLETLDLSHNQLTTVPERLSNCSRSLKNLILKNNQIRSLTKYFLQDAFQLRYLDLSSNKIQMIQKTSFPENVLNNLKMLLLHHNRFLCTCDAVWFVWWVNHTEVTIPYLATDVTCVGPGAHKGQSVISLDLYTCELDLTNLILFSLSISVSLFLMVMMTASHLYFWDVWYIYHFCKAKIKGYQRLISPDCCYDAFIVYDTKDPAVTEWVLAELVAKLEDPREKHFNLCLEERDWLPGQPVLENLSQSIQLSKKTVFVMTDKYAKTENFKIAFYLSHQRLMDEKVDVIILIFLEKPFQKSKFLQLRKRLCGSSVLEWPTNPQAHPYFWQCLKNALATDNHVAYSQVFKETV

TLR8 = molecular target: T3, TLR8 (Homo sapiens, UniProt Q9NR97); assay: TLR8 EC50 assay; details: Table 2
T3 sequence (Q9NR97 27-1041): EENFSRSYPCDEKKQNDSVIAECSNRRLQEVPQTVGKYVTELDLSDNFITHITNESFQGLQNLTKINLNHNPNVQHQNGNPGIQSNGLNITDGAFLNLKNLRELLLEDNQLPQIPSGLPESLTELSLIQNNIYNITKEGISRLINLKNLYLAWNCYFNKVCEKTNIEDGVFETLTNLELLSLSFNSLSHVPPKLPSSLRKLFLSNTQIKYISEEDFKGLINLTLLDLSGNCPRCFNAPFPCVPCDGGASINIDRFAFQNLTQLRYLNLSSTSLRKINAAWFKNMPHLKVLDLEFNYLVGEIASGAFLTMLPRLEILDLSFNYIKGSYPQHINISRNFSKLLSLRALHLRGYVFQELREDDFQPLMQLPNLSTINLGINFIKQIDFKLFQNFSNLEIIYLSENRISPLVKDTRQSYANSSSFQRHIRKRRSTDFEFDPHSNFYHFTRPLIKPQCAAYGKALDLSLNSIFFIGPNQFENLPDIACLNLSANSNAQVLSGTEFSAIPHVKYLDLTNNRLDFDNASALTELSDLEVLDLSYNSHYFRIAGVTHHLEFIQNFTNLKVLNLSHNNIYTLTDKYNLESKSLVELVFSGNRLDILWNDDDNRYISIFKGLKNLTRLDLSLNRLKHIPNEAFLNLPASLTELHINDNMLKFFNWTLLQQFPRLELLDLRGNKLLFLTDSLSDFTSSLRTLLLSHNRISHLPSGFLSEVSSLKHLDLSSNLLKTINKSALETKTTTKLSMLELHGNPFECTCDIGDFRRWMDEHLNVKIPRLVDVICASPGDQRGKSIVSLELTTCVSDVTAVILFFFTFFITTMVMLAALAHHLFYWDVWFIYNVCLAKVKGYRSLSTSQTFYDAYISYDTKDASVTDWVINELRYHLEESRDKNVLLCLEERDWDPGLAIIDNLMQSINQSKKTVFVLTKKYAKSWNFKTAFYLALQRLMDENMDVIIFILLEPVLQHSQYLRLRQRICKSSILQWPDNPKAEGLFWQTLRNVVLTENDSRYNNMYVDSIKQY

T1 sequence (Q96P20 whole entry): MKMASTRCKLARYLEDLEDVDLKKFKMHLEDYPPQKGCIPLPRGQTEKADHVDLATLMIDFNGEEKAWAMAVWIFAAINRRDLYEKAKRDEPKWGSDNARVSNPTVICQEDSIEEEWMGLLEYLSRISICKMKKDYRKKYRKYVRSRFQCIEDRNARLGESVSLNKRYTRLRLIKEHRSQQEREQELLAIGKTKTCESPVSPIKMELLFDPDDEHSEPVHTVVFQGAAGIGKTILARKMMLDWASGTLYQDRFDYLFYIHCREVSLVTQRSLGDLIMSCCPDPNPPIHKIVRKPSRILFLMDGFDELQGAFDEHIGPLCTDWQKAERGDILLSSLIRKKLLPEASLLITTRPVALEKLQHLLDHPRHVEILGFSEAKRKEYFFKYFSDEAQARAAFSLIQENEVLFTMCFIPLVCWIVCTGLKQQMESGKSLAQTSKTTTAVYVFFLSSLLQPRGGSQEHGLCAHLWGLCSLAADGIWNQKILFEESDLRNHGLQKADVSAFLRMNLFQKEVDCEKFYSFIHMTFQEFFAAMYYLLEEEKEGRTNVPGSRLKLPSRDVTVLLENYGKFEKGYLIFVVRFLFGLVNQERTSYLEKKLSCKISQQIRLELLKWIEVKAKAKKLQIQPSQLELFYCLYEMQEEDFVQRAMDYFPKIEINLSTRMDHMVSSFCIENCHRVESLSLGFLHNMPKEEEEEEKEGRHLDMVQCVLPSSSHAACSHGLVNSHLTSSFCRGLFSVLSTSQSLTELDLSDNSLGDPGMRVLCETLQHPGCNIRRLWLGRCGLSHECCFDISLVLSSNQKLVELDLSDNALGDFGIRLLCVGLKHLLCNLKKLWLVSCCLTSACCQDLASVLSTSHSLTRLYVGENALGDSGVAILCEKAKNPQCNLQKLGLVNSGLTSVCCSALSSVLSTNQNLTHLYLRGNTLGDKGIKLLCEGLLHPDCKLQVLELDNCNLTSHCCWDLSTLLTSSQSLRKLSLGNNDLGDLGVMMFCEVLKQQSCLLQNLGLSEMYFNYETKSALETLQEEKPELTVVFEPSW

EC50 (hNLRP3) | EC50 (TLR7) | EC50 (TLR8) | Compound
> 100 µM | > 100 µM | > 100 µM | Nc1nc2cc(N3CCCCC3)ccc2c2[nH]c(CCCO)nc12 [Compound 167, 3-(4-amino-7-piperidin-1-yl-1H-imidazo[4,5-c]quinolin-2-yl)propan-1-ol]
1 to 20 µM | > 100 µM | > 100 µM | Cc1ncc(-c2ccc3c(c2)nc(N)c2nc(CCCO)[nH]c23)cn1 [Compound 155, 3-[4-amino-7-(2-methylpyrimidin-5-yl)-1H-imidazo[4,5-c]quinolin-2-yl]propan-1-ol]
20 to 100 µM | 20 to 100 µM | > 100 µM | Cc1cc(C)n(-c2ccc3c(c2)nc(N)c2nc(CCCO)[nH]c23)n1 [Compound 194, 3-[4-amino-7-(3,5-dimethylpyrazol-1-yl)-1H-imidazo[4,5-c]quinolin-2-yl]propan-1-ol]
20 to 100 µM | > 100 µM | > 100 µM | Nc1nc2ccccc2c2[nH]c(C3CCNCC3)nc12 [Compound 224]
> 100 µM | > 100 µM | > 100 µM | Nc1nc2cc(-c3cccc(Cl)c3)ccc2c2[nH]c(CCCO)nc12 [Compound 204, 3-[4-amino-7-(3-chlorophenyl)-1H-imidazo[4,5-c]quinolin-2-yl]propan-1-ol]
> 100 µM | 1 to 20 µM | > 100 µM | Cc1ccncc1-c1ccc2c(c1)nc(N)c1nc(CCCO)[nH]c12 [Compound 213, 3-[4-amino-7-(4-methylpyridin-3-yl)-1H-imidazo[4,5-c]quinolin-2-yl]propan-1-ol]
> 100 µM | > 100 µM | > 100 µM | Nc1nc2cc(-c3cnoc3)ccc2c2[nH]c(CCCO)nc12 [Compound 195, 3-[4-amino-7-(1,2-oxazol-4-yl)-1H-imidazo[4,5-c]quinolin-2-yl]propan-1-ol]
1 to 20 µM | > 100 µM | > 100 µM | Nc1nc2cc(N3CCNC3=O)ccc2c2[nH]c(CCCO)nc12 [Compound 115]
20 to 100 µM | > 100 µM | > 100 µM | Nc1nc2cc(N3CCCC3=O)ccc2c2[nH]c(CCCO)nc12 [Compound 183, 1-[4-amino-2-(3-hydroxypropyl)-1H-imidazo[4,5-c]quinolin-7-yl]pyrrolidin-2-one]
1 to 20 µM | > 100 µM | > 100 µM | Nc1nc2cc(-c3ccccc3)ccc2c2[nH]c(C3CCNCC3)nc12 [Compound 222]
1 to 20 µM | > 100 µM | > 100 µM | Nc1nc2cc(Cl)c(Cl)cc2c2[nH]c(CCCO)nc12 [Compound 126]
> 100 µM | > 100 µM | > 100 µM | Nc1nc2cc(N3CCCC3)ccc2c2[nH]c(CCCO)nc12 [Compound 166, 3-(4-amino-7-pyrrolidin-1-yl-1H-imidazo[4,5-c]quinolin-2-yl)propan-1-ol]
1 to 20 µM | > 100 µM | > 100 µM | CC(C(=O)O)c1ccc2c(c1)nc(N)c1nc(CCCO)[nH]c12 (stereo not drawn) [Compound 117]
> 100 µM | > 100 µM | > 100 µM | Nc1ccc(-c2ccc3c(c2)nc(N)c2nc(CCCO)[nH]c23)cn1 [Compound 170, 3-[4-amino-7-(6-aminopyridin-3-yl)-1H-imidazo[4,5-c]quinolin-2-yl]propan-1-ol]
1 to 20 µM | > 100 µM | > 100 µM | CCN(C(=O)OC(C)(C)C)C(C)(C)c1nc2c(N)nc3cc(-c4cc[nH]n4)ccc3c2n1Cc1ccc(OC)cc1 [Compound 252]
> 100 µM | > 100 µM | > 100 µM | Nc1nc2cc(-c3ccc(O)nc3)ccc2c2[nH]c(CCCO)nc12 [Compound 176, 5-[4-amino-2-(3-hydroxypropyl)-1H-imidazo[4,5-c]quinolin-7-yl]pyridin-2-ol]
1 to 20 µM | 20 to 100 µM | > 100 µM | CC(C)c1ccc2c(c1)nc(N)c1nc(CCCO)[nH]c12 [Compound 159, 3-(4-amino-7-propan-2-yl-1H-imidazo[4,5-c]quinolin-2-yl)propan-1-ol]
